# Assay results reported in ChEMBL document CHEMBL3872231, “Design, synthesis, and biological evaluation of fluorinated imidazo[1,2-a]pyridine derivatives with potential antipsychotic activity” (Eur J Med Chem, 2016).
# Activity calls are given as the source filed them. The rule behind the calls is not given here.
# Assays:
# [1] = Displacement of [3H]-flunitrazepam from rat brain GABA-A receptor benzodiazepine site after 20 mins by liquid scintillation counting
# [2] = target: T1, GABA-A receptor; alpha-1/beta-2/gamma-2 (Homo sapiens) (UniProt P14867+P47870+P18507); assay: Positive allosteric modulation of human recombinant GABA-A receptor alpha1beta2gamma2 expressed in HEK293 cells assessed as potentiation of GABA induced chloride currents at 1 uM treated every 60 secs measured for 7 secs by electrophysiological method relative to GABA; type: cell-based
# HepG2 [3] = assay: (§1) Hepatotoxicity in human HepG2 cells assessed as loss of mitochondrial membrane potential after 24 hrs by JC-1 staining based fluorescence assay; type: toxicity, cell-based; conditions: hepg2, 24 h
# HepG2 [4] = assay: Hepatotoxicity in human HepG2 cells assessed as cell membrane damage after 48 hrs by luminescence assay; type: toxicity, cell-based; conditions: hepg2, 48 h
# HepG2 [5] = assay: (§2) Hepatotoxicity in human HepG2 cells assessed as decrease in cell viability after 24 hrs by PrestoBlue assay; type: toxicity, cell-based; conditions: hepg2, 24 h
# [6] = Metabolic stability in human liver microsomes at 20 uM preincubated for 15 mins followed by NADPH addition measured after 60 mins by UPLC-MS/MS analysis; type: ADME; conditions: 1 h
# HepG2 [7] = assay: (§3) Hepatotoxicity in human HepG2 cells assessed as intracellular ATP level after 48 hrs by luminescence based ATP detection assay; type: toxicity, cell-based; conditions: hepg2, 48 h
# HepG2 [8] = assay: (§4) Hepatotoxicity in human HepG2 cells assessed as intracellular ATP level after 24 hrs by luminescence based ATP detection assay; type: toxicity, cell-based; conditions: hepg2, 24 h
# [9] = Plasma elimination half life in human; type: ADME; conditions: read-out: beta t1/2
# HepG2 [10] = assay: (§5) Hepatotoxicity in human HepG2 cells assessed as decrease in cell viability after 48 hrs by PrestoBlue assay; type: toxicity, cell-based; conditions: hepg2, 48 h
# Rattus norvegicus [11] = assay: Antipsychotic activity in rat assessed as reversal of amphetamine-induced hyperlocomotion at 1 mg/kg, ip treated for 30 mins prior to test followed by amphetamine administration 15 mins prior to test by open field test; type: functional, organism-based
# [12] = Drug metabolism in human liver microsomes assessed as 2-(2-(4-(hydroxymethyl)phenyl)-6-methylimidazo[1,2-a]pyridin-3-yl)-N,N-dimethylacetamide formation at 20 uM preincubated for 15 mins followed by NADPH addition measured after 60 mins by UPLC-MS/MS analysis; type: ADME; conditions: 1 h
# HepG2 [13] = assay: Hepatotoxicity in human HepG2 cells assessed as cell membrane damage after 24 hrs by luminescence assay; type: toxicity, cell-based; conditions: hepg2, 24 h
# [14] = as §1; type: toxicity, cell-based; conditions: HepG2 cells
# [15] = as §2; type: toxicity, cell-based; conditions: HepG2 cells
# [16] = as §3; type: toxicity, cell-based; conditions: HepG2 cells
# [17] = as §4; type: toxicity, cell-based; conditions: HepG2 cells
# [18] = as §5; type: toxicity, cell-based; conditions: HepG2 cells
# Rattus norvegicus [19] = assay: Antipsychotic activity in ip dosed rat assessed as reversal of amphetamine-induced hyperlocomotion administered 30 mins before administration of amphetamine measured for 15 mins by open field test; type: functional
# Rattus norvegicus [20] = assay: Toxicity in rat assessed as decrease in spontaneous locomotor activity at 1 mg/kg, ip treated for 60 mins by open field test; type: organism-based; conditions: in vivo, 1 h
# Rattus norvegicus [21] = assay: Toxicity in rat assessed as cataleptogenic effects at 1 mg/kg, ip administered 60 mins; type: organism-based; conditions: in vivo, 1 h
# Rattus norvegicus [22] = assay: Toxicity in rat assessed as effect on behavioral changes at 1 mg/kg, ip administered 60 mins; type: organism-based; conditions: in vivo, 1 h
# Rattus norvegicus [23] = assay: Antipsychotic activity in rat assessed as reversal of amphetamine-induced hyperlocomotion at 3 mg/kg, ip treated for 60 mins prior to test followed by amphetamine administration 15 mins prior to test by open field test; type: functional, organism-based
# Rattus norvegicus [24] = assay: Antipsychotic activity in rat assessed as reversal of amphetamine-induced hyperlocomotion at 3 mg/kg, ip treated for 30 mins prior to test followed by amphetamine administration 15 mins prior to test by open field test; type: functional, organism-based
# [25] = target: T1, GABA-A receptor; alpha-1/beta-2/gamma-2 (Homo sapiens); assay: Positive allosteric modulation of human recombinant GABA-A receptor alpha1beta2gamma2 expressed in HEK293 cells assessed as potentiation of GABA induced chloride currents at 1 uM treated every 60 secs measured for 7 secs by electrophysiological method; type: cell-based
# Rattus norvegicus [26] = assay: Toxicity in rat assessed as myorelaxant effects at 1 mg/kg, ip administered 60 mins; type: organism-based; conditions: in vivo, 1 h
# [27] = target: T2, GABA-A receptor; alpha-1/beta-2/gamma-2 (Homo sapiens, UniProt P14867+P18507+P47870); assay: Positive allosteric modulation of human recombinant GABA-A receptor alpha1beta2gamma2 expressed in HEK293 cells assessed as potentiation of GABA induced chloride currents treated every 60 secs measured for 7 secs by electrophysiological method; type: cell-based
# T2 sequence (P14867 whole entry): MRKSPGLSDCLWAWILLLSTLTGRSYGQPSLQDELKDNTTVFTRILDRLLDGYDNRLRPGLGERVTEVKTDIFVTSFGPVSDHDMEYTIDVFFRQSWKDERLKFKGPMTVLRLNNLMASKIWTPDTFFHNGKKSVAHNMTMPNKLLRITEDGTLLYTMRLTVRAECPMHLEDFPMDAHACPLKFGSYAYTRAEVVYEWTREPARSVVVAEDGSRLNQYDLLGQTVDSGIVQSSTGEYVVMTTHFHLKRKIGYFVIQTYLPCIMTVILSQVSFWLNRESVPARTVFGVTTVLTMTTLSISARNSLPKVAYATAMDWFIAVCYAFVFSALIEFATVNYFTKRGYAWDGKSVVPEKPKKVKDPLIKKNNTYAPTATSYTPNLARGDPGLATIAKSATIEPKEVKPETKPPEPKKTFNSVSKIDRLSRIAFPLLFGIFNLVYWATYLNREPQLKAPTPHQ
# T2 sequence (P47870 whole entry): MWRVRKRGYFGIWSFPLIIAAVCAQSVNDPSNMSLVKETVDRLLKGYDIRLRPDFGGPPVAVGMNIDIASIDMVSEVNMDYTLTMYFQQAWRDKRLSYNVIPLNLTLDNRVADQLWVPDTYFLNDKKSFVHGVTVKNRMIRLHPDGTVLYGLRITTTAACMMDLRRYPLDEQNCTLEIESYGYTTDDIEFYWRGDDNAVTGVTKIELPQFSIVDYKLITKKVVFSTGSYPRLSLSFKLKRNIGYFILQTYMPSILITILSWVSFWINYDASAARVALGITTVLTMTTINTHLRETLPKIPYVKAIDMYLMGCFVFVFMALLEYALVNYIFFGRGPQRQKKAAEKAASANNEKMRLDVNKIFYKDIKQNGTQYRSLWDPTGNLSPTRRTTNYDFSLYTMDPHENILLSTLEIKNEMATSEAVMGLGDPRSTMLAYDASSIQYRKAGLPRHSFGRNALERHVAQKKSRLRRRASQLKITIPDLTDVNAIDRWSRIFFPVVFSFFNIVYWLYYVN
# T2 sequence (P18507 whole entry): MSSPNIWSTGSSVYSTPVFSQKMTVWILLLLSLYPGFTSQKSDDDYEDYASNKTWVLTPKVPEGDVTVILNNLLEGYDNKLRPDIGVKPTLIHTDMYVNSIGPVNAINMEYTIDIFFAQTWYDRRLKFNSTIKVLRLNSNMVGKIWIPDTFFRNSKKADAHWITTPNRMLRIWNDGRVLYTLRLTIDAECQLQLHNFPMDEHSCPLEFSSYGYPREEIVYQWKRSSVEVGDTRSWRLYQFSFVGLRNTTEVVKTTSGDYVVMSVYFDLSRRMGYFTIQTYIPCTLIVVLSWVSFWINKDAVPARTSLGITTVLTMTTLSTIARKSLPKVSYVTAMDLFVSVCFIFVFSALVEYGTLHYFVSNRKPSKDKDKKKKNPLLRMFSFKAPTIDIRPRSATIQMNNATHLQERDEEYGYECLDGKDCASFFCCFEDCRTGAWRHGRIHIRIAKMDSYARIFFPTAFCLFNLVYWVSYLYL
# [28] = Drug level in human liver microsomes treated with 20 uM of 2-(6-fluoro-2-p-tolylimidazo[1,2-a]pyridin-3-yl)-N,N-dimethylethanamide preincubated for 15 mins followed by NADPH addition measured after 60 mins by UPLC-MS/MS analysis; type: ADME; conditions: 1 h
# [29] = Drug level in human liver microsomes treated with 20 uM of zolpidem preincubated for 15 mins followed by NADPH addition measured after 60 mins by UPLC-MS/MS analysis; type: ADME; conditions: 1 h
# Rattus norvegicus [30] = species on record: Rattus norvegicus; assay: Potency index, ratio of zolpidem Ki to compound Ki for rat brain GABA-A receptor benzodiazepine site
# [31] = Drug metabolism in human liver microsomes assessed as 2-(6-fluoro-2-(4-(hydroxymethyl)phenyl)imidazo[1,2-a]pyridin-3-yl)-N,N-dimethylacetamide formation at 20 uM preincubated for 15 mins followed by NADPH addition measured after 60 mins by UPLC-MS/MS analysis; type: ADME; conditions: 1 h
smiles,measurement,setting,value
CN(C)C(=O)Cc1c(-c2cccc(F)c2)nc2ccc(F)cn12,Ki,[1],140 nM
Cc1ccc(-c2nc3ccc(C)cn3c2CC(=O)N(C)C)cc1 [ZOLPIDEM],fold change (FC),[2],2.5
same,Activity,HepG2 [3],Non-Toxic
same,Activity,HepG2 [4],Non-Toxic
same,Activity,HepG2 [5],Non-Toxic
same,Stability,[6],Stable
same,Activity,HepG2 [7],Non-Toxic
same,Ki,[1],44 nM
same,Activity,HepG2 [8],Non-Toxic
same,half-life,[9],≤ 2 h
same,Activity,HepG2 [10],Non-Toxic
same,Activity,Rattus norvegicus [11],Active
same,Drug metabolism,[12],Metabolite_Detected
same,Activity,HepG2 [13],Non-Toxic
N#CC(C#N)=NNc1cccc(Cl)c1 [CARBONYL CYANIDE M-CHLOROPHENYLHYDRAZONE],IC50 at 24 h,[14],36000 nM
same,Activity,HepG2 [4],Non-Toxic
same,IC50 at 24 h,[15],22000 nM
same,IC50 at 48 h,[16],7200 nM
same,IC50 at 24 h,[17],9800 nM
same,IC50 at 48 h,[18],6000 nM
same,Activity,HepG2 [13],Non-Toxic
CN(C)C(=O)Cc1c(-c2ccc(F)c(F)c2)nc2ccc(F)cn12,Ki,[1],57.5 to 58 nM
CN(C)C(=O)Cc1c(-c2ccccc2)nc2ccc(F)cn12,Ki,[1],130 nM
CN(C)C(=O)Cc1c(-c2ccc(F)cc2F)nc2ccc(F)cn12,Ki,[1],180 nM
CN(C)C(=O)Cc1c(-c2cccc(F)c2)nc2ccc(C(F)(F)F)cn12,Ki,[1],730 nM
CN(C)C(=O)Cc1c(-c2ccc(F)cc2F)nc2ccc(C(F)(F)F)cn12,Ki,[1],830 nM
CN(C)C(=O)Cc1c(-c2ccc(C(F)(F)F)cc2)nc2ccc(C(F)(F)F)cn12,Ki,[1],487 nM
CN(C)C(=O)Cc1c(-c2ccc(C(F)(F)F)cc2)nc2ccc(F)cn12,Ki,[1],68 nM
Cc1ccc2nc(-c3ccc(F)cc3)c(CC(=O)N(C)C)n2c1,fold change (FC),[2],1.9
same,Activity,HepG2 [3],Non-Toxic
same,Activity,Rattus norvegicus [19],Dose-dependent effect
same,minimal effective dose,Rattus norvegicus [19]; read-out: MED,1 mg/kg
same,Activity,Rattus norvegicus [20],Toxic
same,Activity,HepG2 [4],Non-Toxic
same,Activity,HepG2 [5],Non-Toxic
same,Stability,[6],Stable
same,Activity,Rattus norvegicus [21],Non-Toxic
same,Activity,HepG2 [7],Non-Toxic
same,Ki,[1],59.6 to 60 nM
same,Activity,Rattus norvegicus [22],Toxic
same,Activity,Rattus norvegicus [23],Active
same,Activity,Rattus norvegicus [24],Active
same,Activity,[25],Active
same,Activity,HepG2 [8],Non-Toxic
same,Activity,HepG2 [10],Non-Toxic
same,Activity,Rattus norvegicus [26],Non-Toxic
same,EC50,[27],238 nM
same,Activity,HepG2 [13],Non-Toxic
Cc1ccc(-c2nc3ccc(CO)cn3c2CC(=O)N(C)C)cc1,Drug metabolism,[28],Metabolite_Detected
Cc1ccc2nc(-c3ccc(CO)cc3)c(CC(=O)N(C)C)n2c1,Drug metabolism,[29],Metabolite_Detected
CN(C)C(=O)Cc1c(-c2ccc(F)cc2)nc2ccc(F)cn12,fold change (FC),[2],1.8
same,Activity,HepG2 [3],Non-Toxic
same,Activity,HepG2 [4],Non-Toxic
same,Activity,HepG2 [5],Non-Toxic
same,Stability,[6],Stable
same,Activity,HepG2 [7],Non-Toxic
same,Ki,[1],55.6 to 56 nM
same,Activity,[25],Active
same,Activity,HepG2 [8],Non-Toxic
same,Activity,HepG2 [10],Non-Toxic
same,EC50,[27],408 nM
same,Activity,HepG2 [13],Non-Toxic
CN(C)C(=O)Cc1c(-c2ccc(F)cc2)nc2ccc(C(F)(F)F)cn12,Ki,[1],510 nM
Cc1ccc(-c2nc3ccc(F)cn3c2CC(=O)N(C)C)cc1,fold change (FC),[2],1.5
same,Activity,HepG2 [3],Non-Toxic
same,Activity,HepG2 [4],Non-Toxic
same,Activity,HepG2 [5],Non-Toxic
same,Ratio Ki,Rattus norvegicus [30],1.8
same,Activity,HepG2 [7],Non-Toxic
same,Drug metabolism,[31],Metabolite_Detected
same,Ki,[1],25 nM
same,Activity,[25],Active
same,Activity,HepG2 [8],Non-Toxic
same,Activity,HepG2 [10],Non-Toxic
same,EC50,[27],1270 nM
same,Activity,HepG2 [13],Non-Toxic
